# Reference: patent US11077090B2, “Compounds and compositions and uses thereof” (Sunovion Pharmaceuticals Inc., priority 2016, dated 2021)
# System: Male C57Bl/6J mice
# Test: Prepulse inhibition of startle (PPI)
# Format: in vivo
# Parameters: key: −: No change in PPI; +: Significant increase in PPI at one pre-pulse intensity (P < 0.05 vs vehicle); ++: Significant increase in PPI at two pre-pulse intensities (P < 0.05 vs vehicle); +++: Significant increase in PPI at three pre-pulse intensities (P < 0.05 vs vehicle)
# Conditions: 3 mg/kg PO
# From the text: The acoustic startle is an unconditioned reflex response to an external auditory stimulus. Prepulse inhibition of startle (PPI) refers to the reduction in the startle response caused by the presentation of a low-intensity auditory stimulus prior to the startle stimulus. The PPI paradigm is used for the study of schizophrenia and antipsychotic action due to the similarities between the results from human and rodent studies. PPI has been used as a tool for the assessment of deficiencies in sensory-motor gating observed in schizophrenia and to screen for potential antipsychotic drugs. Various psychotomimetic drugs, such as phencyclidine (PCP), can disrupt PPI. In mice, antipsychotic drugs such as haloperidol can increase PPI and clozapine can reverse the disruption of PPI induced by PCP.
# Male C57Bl/6J mice from Jackson Laboratories were placed in the PPI chambers (Med Associates) for a 5 min session of white noise (70 dB) habituation. After the habituation period, the test session was initiated. The session started with a habituation block of 6 presentations of the startle stimulus alone, followed by 10 PPI blocks, each of which consisted of 6 different types of trials. Trial types were: ‘null’ (no stimuli), ‘startle’ (120 dB), ‘startle plus prepulse’ (4, 8, and 12 dB over background noise, i.e., 74, 78, or 82 dB) and ‘prepulse’ (82 dB). Trial types were presented in a random order within each block. Each trial started with a 50 ms stimulus-free period during which baseline movements were recorded. This was followed by a subsequent 20 ms period during which the prepulse stimulus was presented and responses to the prepulse measured. After a further 100 ms period, the startle stimulus was presented for 40 ms and responses recorded for 100 ms from startle onset. Responses were sampled every ms. The inter-trial interval was variable with an average of 15 s (range from 10 to 20 s). In ‘startle’ trials, the basic auditory startle response was measured. The basic startle response was calculated as the mean startle response of all ‘startle’ trials (i.e., excluding the first habituation block). In ‘startle plus prepulse’ trials, the degree of inhibition of the normal startle was calculated and expressed as a percentage of the basic startle response.
# Mice were treated with vehicle or test compound orally by gavage, or haloperidol (1 mg/kg, i.p.), in 10 mL/kg injection volumes, 30 min prior to PPI test. The PPI enclosures were cleaned following each test. An increase in the percent PPI relative to the vehicle condition indicates an antipsychotic drug-like response.
row,SMILES,Effect on Pre-Pulse Inhibition (PPI)
1,"N[C@@H]1COCc2ccccc21 (single isomer, unassigned) [Example 111]",−

# Same assay, conditions: 10 mg/kg PO
row,SMILES,Effect on Pre-Pulse Inhibition (PPI)
1,"N[C@@H]1COCc2ccccc21 (single isomer, unassigned) [Example 111]",−
2,"N[C@H]1COCc2ccc(F)cc21 (single isomer, unassigned) [Example 114]",−
3,"N[C@@H]1COCc2ccc3ccccc3c21 (single isomer, unassigned) [Example 117]",−
4,"N[C@H]1COCc2ccc3ccccc3c21 (single isomer, unassigned) [Example 118]",−
5,Cc1ccc2c(c1)[C@H](N)COC2 [Example 123],−
6,Cc1ccc2c(c1)[C@@H](N)COC2 [Example 124],−

# Same assay, conditions: 30 mg/kg PO
row,SMILES,Effect on Pre-Pulse Inhibition (PPI)
1,"N[C@@H]1COCc2ccccc21 (single isomer, unassigned) [Example 111]",+++
2,"N[C@H]1COCc2ccc(F)cc21 (single isomer, unassigned) [Example 114]",−
3,"N[C@@H]1COCc2ccc3ccccc3c21 (single isomer, unassigned) [Example 117]",+++
4,"N[C@H]1COCc2ccc3ccccc3c21 (single isomer, unassigned) [Example 118]",−
5,Cc1ccc2c(c1)[C@H](N)COC2 [Example 123],−
6,Cc1ccc2c(c1)[C@@H](N)COC2 [Example 124],−

# System: Male C57Bl/6J mice
# Test: Marble burying test
# Format: in vivo
# Parameters: key: −: No reduction in number of marbles buried; +: Significant reduction in number of marbles buried (P < 0.05 vs vehicle)
# Conditions: 3 mg/kg (p.o.)
# Method in brief: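 Mice (n=10/group) dosed i.p. or p.o. with compound or water 30 min before a 30-min session in cages with twenty marbles; marbles at least two-thirds covered scored buried. Distance traveled tracked by overhead camera for locomotion; fewer marbles buried than vehicle indicates anxiolytic-like effect.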
row,SMILES,Marbles Buried
1,"N[C@@H]1COCc2ccccc21 (single isomer, unassigned) [Example 111]",−
2,"N[C@H]1COCc2ccc(F)cc21 (single isomer, unassigned) [Example 114]",+
3,"N[C@@H]1COCc2ccc3ccccc3c21 (single isomer, unassigned) [Example 117]",+

# Same assay, conditions: 10 mg/kg (p.o.)
row,SMILES,Marbles Buried
1,"N[C@@H]1COCc2ccccc21 (single isomer, unassigned) [Example 111]",+
2,"N[C@H]1COCc2ccc(F)cc21 (single isomer, unassigned) [Example 114]",+
3,"N[C@@H]1COCc2ccc3ccccc3c21 (single isomer, unassigned) [Example 117]",+
4,"N[C@H]1COCc2ccc3ccccc3c21 (single isomer, unassigned) [Example 118]",+
5,Cc1ccc2c(c1)[C@H](N)COC2 [Example 123],+
6,Cc1ccc2c(c1)[C@@H](N)COC2 [Example 124],+

# Same assay, conditions: 30 mg/kg (p.o.)
row,SMILES,Marbles Buried
1,"N[C@@H]1COCc2ccccc21 (single isomer, unassigned) [Example 111]",+
2,"N[C@H]1COCc2ccc(F)cc21 (single isomer, unassigned) [Example 114]",+
3,"N[C@@H]1COCc2ccc3ccccc3c21 (single isomer, unassigned) [Example 117]",+
4,"N[C@H]1COCc2ccc3ccccc3c21 (single isomer, unassigned) [Example 118]",+
5,Cc1ccc2c(c1)[C@H](N)COC2 [Example 123],+
6,Cc1ccc2c(c1)[C@@H](N)COC2 [Example 124],+

# System: Male C57Bl/6J mice
# Test: Amphetamine induced hyperlocomotion assay
# Format: in vivo
# Parameters: key: #: Significant increase in total distance traveled (P < 0.05 vs vehicle + AMPH group); −: No change in total distance traveled; Significant decrease in total distance traveled (P < 0.05 vs vehicle + AMPH group)
# Conditions: 3 mg/kg PO Compound + AMPH
# Protocol: Psychostimulants such as amphetamine (AMPH) are frequently used to induce or mimic a manic-like or psychotic-like state. AMPH administration to rodents increases horizontal locomotion, vertical rearing and repetitive stereotyped behaviors, and typical antipsychotic drugs, such as haloperidol, can reduce these behaviors. The antimanic/antipsychotic-like effects of test compounds were evaluated in male C57Bl/6J mice from Jackson Laboratories Mice were acclimatized to the experimental room for at least 1 hour prior to testing. The mice (n=10 per group) were administered vehicle or test compound orally by gavage (10 mL/kg injection volume) and placed individually in the novel open field (OF) chambers (Med Associates) for 30 minutes of baseline activity measurement. Mice were then injected with either water or AMPH (4 mg/kg, i.p., 10 mL/kg) and placed back in the same individual OF chambers for a 60-minute testing session during which the effects of test compounds on stimulant-induced behaviors (total distance traveled, rearing and stereotypy) were measured. A reduction in total distance traveled relative to the vehicle+AMPH condition indicates an antimanic/antipsychotic drug-like response.
row,SMILES,Total Distance Traveled
1,"N[C@@H]1COCc2ccccc21 (single isomer, unassigned) [Example 111]",#

# Same assay, conditions: 10 mg/kg PO Compound + AMPH
row,SMILES,Total Distance Traveled
1,"N[C@@H]1COCc2ccccc21 (single isomer, unassigned) [Example 111]",−
2,"N[C@H]1COCc2ccc(F)cc21 (single isomer, unassigned) [Example 114]",−
3,"N[C@@H]1COCc2ccc3ccccc3c21 (single isomer, unassigned) [Example 117]",−
4,"N[C@H]1COCc2ccc3ccccc3c21 (single isomer, unassigned) [Example 118]",−
5,Cc1ccc2c(c1)[C@H](N)COC2 [Example 123],−
6,Cc1ccc2c(c1)[C@@H](N)COC2 [Example 124],−

# Same assay, conditions: 30 mg/kg PO Compound + AMPH
row,SMILES,Total Distance Traveled
1,"N[C@@H]1COCc2ccccc21 (single isomer, unassigned) [Example 111]",+
2,"N[C@H]1COCc2ccc(F)cc21 (single isomer, unassigned) [Example 114]",+
3,"N[C@@H]1COCc2ccc3ccccc3c21 (single isomer, unassigned) [Example 117]",+
4,"N[C@H]1COCc2ccc3ccccc3c21 (single isomer, unassigned) [Example 118]",+
5,Cc1ccc2c(c1)[C@H](N)COC2 [Example 123],+
6,Cc1ccc2c(c1)[C@@H](N)COC2 [Example 124],+
